The values below are quoted from earlier work in patent US7211274B2, “Hair growth formulation” (Hovis SDN BHD, priority 2002, dated 2007).

The conditions of this data set: reported.

tocopherols: the “Half life in humans” value is reported as “about 20 hours”.

tocotrienols: the “Half life in humans” value was 2 to 4 h.
